Laboratory results reported in patent US9162975B2, “Phenyl carbamate compounds for use in alleviating or treating pain” (Bio-Pharm Solutions Co., Ltd., priority 2011, dated 2015).

How the values were obtained:
[1] = test system: STZ-induced pain model in rats; test: Antiallodynic activity on streptozotocin (STZ)-induced diabetic pain model, von Frey; assay type: in vivo, Sprague-Dawley rats; details: 0.5 hr, paw withdrawal threshold relative to sham
Procedure: Male, Sprague-Dawley rats (200-220 g, Nara Bio, Korea) were habituated for 1 week before surgery and allowed free access to food and water throughout the experimentation. Room temperature and humidity were maintained at 24±2° C. and 50±10%, respectively.
STZ-induced diabetic pain model was established with a modified method of Rakieten et al. (1963) and Bertrand Aubel et al. (2004). All animals were fasted 4 to 6 hr prior to STZ injection. STZ (sigma, USA) was dissolved in 20 mM sodium citrate buffer, pH 5.5 (sigma, USA) and intraperitoneally injected at 75 mg/kg, 4 ul/g, bw into the rats Sham controls were injected with same volume of 20 mM sodium citrate buffer, pH 5.5 and vehicle controls were identical to STZ model, except for administration of vehicles. Rats were supplied with 10% sucrose water for 2 days against sudden hypoglycemia. 3 days later, the induction of diabetes was checked by measurement of tail vein blood glucose levels with a blood glucose meter. (LifeScan OneTouch Ultra, USA). If blood glucose was not >300 mg/dl by 72 hr, the rat was excluded from the diabetic group.
(§1) Tactile sensitivity (Mechanical allodynia) was evaluated using von Frey monofilaments before and after treatment of compound example 1 and animals were used withdrawal threshold value was less than 4 g. […] The tactile sensitivity for ipsilateral hind paw was measured using the up-and-down method (Dixon, 1980) with seven von Frey monofilaments (0.4, 1, 2, 4, 6, 8, and 15 g) to 3 trials. […] The 50% paw withdrawal threshold for each paw was calculated using the following formula: [Xth] log=[vFr] log+ky where [vFr] is the force of the last von Frey used, k=0.2249 which is the average interval (in log units) between the von Frey monofilaments, and y is a value that depends upon the pattern of withdrawal responses (Dixon, 1980).
Antiallodynic effect of compound of Example 1 was evaluated at the dose of 10, 30 and 60 mg/kg (n=6), intraperitoneally administrated in a volume of 5 ul/g, bw in a vehicle of 30% (v/v) PEG. […]

[2] = test system: vincristine-induced pain model in rats; test: Antiallodynic activity on vincristine-induced pain model, von Frey; assay type: in vivo, Sprague-Dawley rats; details: 0.5 hr, paw withdrawal threshold relative to sham
Procedure: Male, Sprague-Dawley rats (300-320 g, Nara Bio, Korea) were habituated for 1 week before surgery and allowed free access to food and water throughout the experimentation. Room temperature and humidity were maintained at 24±2° C. and 50±10%, respectively.
Vincristine was established by the procedure of Natsuko et al. (2001) with minor modifications. Vincristine was intravenously infused continuously for 14 days using a mini-osmotic pump as follows. Vincristine sulfate solution (Hospira, Australia) was diluted with 0.9% saline to 30 ug/kg, final dose. The pumps (Alzet Model 2002, USA) were filled with the vincristine solution and primed by incubation at 37° C. for 4 h before the infusion. Briefly, animal under gaseous anesthesia with isoflurane a 4:4 flow ratio of NO2. […]
as §1, with “treatment,” for “treatment of compound example 1”
Antiallodynic effect of compound of Example 1 was evaluated at the dose of 1, 5 and 10 mg/kg (n=6), intraperitoneally administrated in a volume of 5 ul/g, bw in a vehicle of 30% (v/v) PEG. […]
The relative values compared to the sham (% control) were calculated and shown in Table 6 and FIG. 6, which show an antiallodynic effect of Compound 1 on vincristine-induced pain model in rats.

[3] = dose 10 mg/kg intraperitoneally

Structure (SMILES): C[C@H](OC(N)=O)[C@@H](O)c1ccccc1Cl [Example 1, 1-(2-chlorophenyl)-(S)-1-hydroxypropyl-(S)-2-carbamate]
- % Control (STZ-induced pain model) [1, 3]: 33.9%
- % Control (STZ-induced pain model) ([1]; dose 30 mg/kg intraperitoneally): 49.9%
- % Control (STZ-induced pain model) ([1]; dose 60 mg/kg intraperitoneally): 73.7%
- % Control (vincristine-induced pain model) ([2]; dose 1 mg/kg intraperitoneally): 20.7%
- % Control (vincristine-induced pain model) ([2]; dose 5 mg/kg intraperitoneally): 63.1%
- % Control (vincristine-induced pain model) [2, 3]: 71.7%
